Test results as given in PubChem BioAssay AID504426 (Johns Hopkins Ion Channel Center, 2011).
Activity calls are given as the source filed them.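 How the source made its calls: active means channel current reduced at one or more tested doses, with a fitted dose-response curve; inactive means no curve fitted, or no current reduction at any dose.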

Molecular target: Voltage-dependent T-type calcium channel subunit alpha-1H (Homo sapiens) (UniProt O95180)
Assay: concentration-dependent block of Cav3.2 currents – automated patch clamp, HEK293 cells, mechanism study, dose response (AID 504426)
Conditions: Cav3.2-HEK293, automated patch clamp peak current; for current change, negative = inhibition: at 30 µM (top of the series)

Voltage-dependent T-type calcium channel subunit alpha-1H (Homo sapiens), sequence (O95180 whole entry, looked up): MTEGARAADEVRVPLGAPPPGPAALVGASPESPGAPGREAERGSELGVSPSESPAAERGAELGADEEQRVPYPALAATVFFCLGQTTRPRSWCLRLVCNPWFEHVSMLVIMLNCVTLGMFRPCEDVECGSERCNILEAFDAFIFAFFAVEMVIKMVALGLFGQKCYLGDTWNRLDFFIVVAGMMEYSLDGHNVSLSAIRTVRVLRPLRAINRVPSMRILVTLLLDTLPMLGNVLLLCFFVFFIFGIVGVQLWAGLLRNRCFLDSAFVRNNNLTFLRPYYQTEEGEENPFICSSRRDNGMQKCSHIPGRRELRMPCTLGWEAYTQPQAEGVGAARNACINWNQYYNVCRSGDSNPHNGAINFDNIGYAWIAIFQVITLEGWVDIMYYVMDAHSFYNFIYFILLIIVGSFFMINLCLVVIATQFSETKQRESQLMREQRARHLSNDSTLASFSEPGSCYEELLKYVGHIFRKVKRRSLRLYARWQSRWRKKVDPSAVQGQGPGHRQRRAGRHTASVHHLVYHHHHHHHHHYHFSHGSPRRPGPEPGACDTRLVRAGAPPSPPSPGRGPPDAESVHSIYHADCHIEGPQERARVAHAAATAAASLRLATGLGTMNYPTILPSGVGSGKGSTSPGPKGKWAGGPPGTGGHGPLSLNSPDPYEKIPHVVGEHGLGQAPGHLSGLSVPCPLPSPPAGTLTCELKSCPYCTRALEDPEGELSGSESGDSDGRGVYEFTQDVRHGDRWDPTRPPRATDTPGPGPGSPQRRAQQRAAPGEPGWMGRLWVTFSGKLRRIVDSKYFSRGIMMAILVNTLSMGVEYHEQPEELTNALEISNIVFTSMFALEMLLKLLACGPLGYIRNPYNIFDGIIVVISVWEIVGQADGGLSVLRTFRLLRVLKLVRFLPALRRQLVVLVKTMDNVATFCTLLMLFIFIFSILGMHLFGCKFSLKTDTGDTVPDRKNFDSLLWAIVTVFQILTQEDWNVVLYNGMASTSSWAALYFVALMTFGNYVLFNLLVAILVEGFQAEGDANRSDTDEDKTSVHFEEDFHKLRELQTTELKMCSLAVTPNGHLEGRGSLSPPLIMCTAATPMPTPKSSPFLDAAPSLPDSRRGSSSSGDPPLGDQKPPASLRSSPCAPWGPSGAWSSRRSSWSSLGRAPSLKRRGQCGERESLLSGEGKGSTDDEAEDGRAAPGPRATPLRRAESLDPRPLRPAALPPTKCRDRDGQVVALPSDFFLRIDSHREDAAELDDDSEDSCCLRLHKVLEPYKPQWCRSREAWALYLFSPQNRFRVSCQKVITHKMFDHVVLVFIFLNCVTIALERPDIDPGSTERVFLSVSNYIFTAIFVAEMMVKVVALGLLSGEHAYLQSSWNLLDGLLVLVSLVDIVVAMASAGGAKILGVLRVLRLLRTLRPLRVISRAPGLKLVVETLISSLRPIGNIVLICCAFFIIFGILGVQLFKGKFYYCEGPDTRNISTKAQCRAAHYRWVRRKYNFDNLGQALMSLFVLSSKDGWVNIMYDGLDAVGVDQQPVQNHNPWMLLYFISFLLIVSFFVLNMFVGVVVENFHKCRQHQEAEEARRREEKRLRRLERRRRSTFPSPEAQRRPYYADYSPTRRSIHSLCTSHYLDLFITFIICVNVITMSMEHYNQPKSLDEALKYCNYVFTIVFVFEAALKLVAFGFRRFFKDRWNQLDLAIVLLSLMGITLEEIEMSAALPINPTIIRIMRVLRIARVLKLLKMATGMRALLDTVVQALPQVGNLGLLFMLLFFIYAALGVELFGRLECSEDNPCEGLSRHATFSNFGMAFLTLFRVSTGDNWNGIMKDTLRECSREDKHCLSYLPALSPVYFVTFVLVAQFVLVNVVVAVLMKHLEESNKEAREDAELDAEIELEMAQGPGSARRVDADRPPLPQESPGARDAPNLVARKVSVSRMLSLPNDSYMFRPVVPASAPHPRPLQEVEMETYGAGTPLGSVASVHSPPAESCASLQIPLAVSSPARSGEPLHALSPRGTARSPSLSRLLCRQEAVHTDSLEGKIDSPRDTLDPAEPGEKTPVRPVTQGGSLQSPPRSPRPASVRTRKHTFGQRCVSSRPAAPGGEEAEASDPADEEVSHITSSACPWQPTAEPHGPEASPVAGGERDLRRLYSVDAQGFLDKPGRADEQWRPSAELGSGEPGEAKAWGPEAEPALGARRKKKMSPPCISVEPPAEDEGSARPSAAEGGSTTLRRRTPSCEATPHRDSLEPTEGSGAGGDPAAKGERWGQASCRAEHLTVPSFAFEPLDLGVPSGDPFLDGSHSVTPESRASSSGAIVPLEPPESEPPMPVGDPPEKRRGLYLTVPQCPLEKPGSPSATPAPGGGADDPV

Question: How did the “current change, negative = inhibition” value turn out when Cc1ccc(-c2nnc(NC(=O)COc3ccc(F)cc3Cl)o2)cc1C was run?
Answer: inactive

Question: How did the IC50 turn out when O=C(COc1ccc(F)cc1Cl)Nc1nnc(-c2ccc(F)c(F)c2)o1 was run?
Answer: 13.5 µM

Question: CC(C)(C)CCN1C[C@@H]2C(CNC(=O)c3cc(Cl)cc(Cl)c3)[C@@H]2C1 (some centres undefined) was tested. Which IC50 did it give?
Answer: 0.31 µM

Question: CC(C)(C)Cc1nnc(NC(=O)COc2ccc(Cl)cc2Cl)o1 was tested. Which “current change, negative = inhibition” value did it give?
Answer: inactive
